The record followed here is article PMC11215077, “Antiviral activity of temporin-1CEb analogues against gingival infection with herpes simplex virus type 1” (Frontiers in Oral Health, 2024).

Broadly, the IC50 is the midpoint of a concentration-inhibition curve.

Experiment [1] concerns HSV-1. As to the kind of experiment: Attachment (adsorption) assay in TIGKs cells. In kind it is cell-based, herpes simplex virus type 1. To be noted: 15 μg/ml present only during infection, 2 h at 4°C, 48 h. On the procedure:
HSV-1 stocks were generated by infecting Vero E6 cells. Cells were lysed at 48 h p.i. by two freeze-thaw cycles. The virus containing fluid was aliquoted and stored at −80°C. A control Vero E6 cell lysate from mock-infected cells was prepared in the same manner as the virus stock. Virus yield was assessed by virus titration on fully confluent Vero E6 cells in 96-well plates, according to the method of Reed & Muench ([32]). Plates were incubated at 37°C for 48 h and the occurrence of a cytopathic effect was scored using an inverted microscope, and TCID50 (50% tissue culture infection dose) was calculated.
TIGKs cells were seeded in 12-well plates and cultured for 48 h. Next, keratinocytes were infected with HSV-1 (TCID50 400 /ml) or treated with mock in the presence of DAL-PEG-LK6 or CPP1-PEG-LK6 (15 μg/ml) for 2 h at 4°C. […] Next, samples were collected, and viral yield was determined using titration and qPCR.
(§1) Viral DNA was isolated from the conditioned media or the apical washes of inserts (OTG model) using Viral DNA/RNA Isolation Kit (A&A Biotechnology). The virus yield assessed by quantitative real-time PCR (qPCR). […] DNA quantification standards were prepared. […] The number of copies per mL was estimated after the concentration of linearized DNA was assessed spectrophotometrically.

Experiment [2] in a line: Azure A metachromatic assay. In kind it is binding. To be noted: HS 0.2 mg/ml, Azure A 23 μg/ml, peptide 1–300 μg/ml, 15 min at RT. As to the method: The possible interaction of peptide conjugate with HS was investigated by incubation the mixtures containing a constant concentration of HS (0.2 mg/ml, Sigma Aldrich) and solutions of CPP1-PEG-LK6 at different concentrations (1–300 μg/ml). Next, the mixtures were shaken for 15 min at room temperature. […] Azure A, a cationic dye when binding to heparin and/or HS changes its adsorption spectrum ([35]).

A short description of experiment [3]: Confocal colocalization of CFS-labelled conjugate with HS on TIGKs cells. In kind it is cell-based. The following applies: CFS-labelled conjugate 15 μg/ml, 30 min at 4°C, average ± SEM. As to the method:
To examine the colocalization of HS on the cell surface with tested peptide conjugate we treated TIGKs cells with CFS stained CPP1-PEG-LK6 (15 μg/ml) for 30 min at 4°C. Then cells were washed with cold PBS and fixed with 3.7% formaldehyde for 30 min. Afterwards, TIGKs cells were stained with primary antibodies (1:100; rat anti-HS, Abcam) for 2 h at room temperature. The cells were then incubated with secondary antibodies (1:1,000; goat anti-rat conjugated with Alexa Fluor 568, Cell Signaling) and with Alexa Fluor 633 Phalloidin. Next, the coverslips were placed on glass slide with ProLong Antifade Mounting Medium with DAPI and visualized using a confocal laser scanning microscope (LSM 880; Zeiss).

The test system of experiment [4] is HSV-1 clinical strains (294.1, 615.9, C08R, C10B). As to the kind of experiment: Viral replication assay with HSV-1 clinical strains. In kind it is cell-based, herpes simplex virus type 1. The following applies: 15 μg/ml, qPCR 48 h p.i. On the procedure: HSV-1 strain F was acquired from American Type Culture Collection (VR 733). Clinical isolates of HSV-1 (294.1, 615.9, C08R, C10B) were kindly provided by Donald M. Coen from Department of Biological Chemistry and Molecular Pharmacology, Harvard Medical School, Boston. HSV-1 strains were propagated and titrated on Vero cells.
Vero E6 or TIGKs cells were seeded in 12-well plates and cultured for 48 h. Next, the medium was removed and replaced with a fresh medium supplemented with DAL-PEG-LK6 and CPP1-PEG-LK6 (15 μg/ml). After 30 min of incubation at 37°C, cells were infected with HSV-1 at TCID50 400 /ml or treated with mock. After 2 h of infection at 37°C, unbound viral particles were removed by washing with PBS, and culture media supplemented with peptide conjugates were applied. Following 48 h of incubation, media were collected, and the quantity of HSV-1 DNA copies was assessed using titration and qPCR.
as §1
Background: Quantitative PCR measures a nucleic acid by following its amplification.

In experiment [5] the test system is HSV-1. The following applies: concentration reducing viral replication by 50%; TIGKs cells pre-treated, infected and cultivated with compound; qPCR; mean of two independent experiments.
Description: Vero E6 or TIGKs cells were seeded in 12-well plates and cultured for 48 h. […] After 30 min of incubation at 37°C, cells were infected with HSV-1 at TCID50 400 /ml or treated with mock. After 2 h of infection at 37°C, unbound viral particles were removed by washing with PBS, and culture media supplemented with peptide conjugates were applied. Following 48 h of incubation, media were collected, and the quantity of HSV-1 DNA copies was assessed using titration and qPCR.
Viral DNA was isolated from the conditioned media or the apical washes of inserts (OTG model) using Viral DNA/RNA Isolation Kit (A&A Biotechnology). The virus yield assessed by quantitative real-time PCR (qPCR). The reaction was carried out in a CFX96 Touch Real-Time PCR Detection System (Bio-Rad), in a 10 μl reaction mixture consisting of TaqMan^TM Fast Advanced Master Mix, TaqMan^TM Microbe Detection assay against HSV-1 (Vi04230116_s1) and 1 μl of viral DNA. The temperature profile was 10 s at 95°C, followed by 40 cycles of 3 s at 95°C and 20 s at 60°C.
Data were expressed as means ± SD. Statistical significance was determined using unpaired t-test, one-way ANOVA, and/or two-way ANOVA for direct comparisons between single groups. A p-value <0.05 was considered statistically significant. We used GrapPad Prism 10 software for the analyses. […]

Converted amounts (≈) assume the structure as drawn. Square brackets hold non-standard residues; d marks the D form. Peptide text beside a SMILES is read from it. AEEA = NCCOCCOCC(=O)O

`CC[C@H](C)[C@H](NC(=O)COCCOCCNC(=O)[C@@H](NC(=O)[C@H](CC(C)C)NC(=O)[C@H](Cc1ccc(O)cc1)NC(=O)[C@@H](NC(=O)[C@H](Cc1ccccc1)NC(=O)[C@@H]1CCCN1)C(C)C)[C@@H](C)CC)C(=O)N[C@@H](CCCCN)C(=O)N[C@@H](CCCCN)C(=O)N[C@H](C(=O)N[C@@H](CC(C)C)C(=O)N[C@@H](CO)C(=O)N[C@@H](CCCCN)C(=O)N[C@H](C(=O)N[C@@H](CCCCN)C(=O)N[C@@H](CCCCN)C(=O)N[C@@H](CC(C)C)C(=O)N[C@@H](CC(C)C)C(=O)N[C@@H](CCCCN)C(N)=O)[C@@H](C)CC)[C@@H](C)CC` [CPP1-PEG-LK6] (H-PFVYLI[AEEA]IKKILSKIKKLLK-NH2): the “decrease in viral yield, attachment assay, qPCR” value in experiment [1] (Figure 2D) is ~95%. Moreover, the “decrease in viral titer, attachment assay, titration” value in experiment [1] (Figure 2E) is ~97%. The “interaction with heparan sulfate (Azure A release, absorbance at 630 nm)” value in experiment [2] is given as “releases Azure A from HS”. For the same molecule, in experiment [3], the “colocalization with HS, Manders overlap coefficient” value worked out at 0.93 ± 0.01 and the “colocalization with HS, Pearson's correlation” value was determined as 0.82 ± 0.02. The “activity against HSV-1 clinical strains” value in experiment [4] (Figure 4) is “inhibits all selected HSV-1 clinical strains”. Moreover, the “inhibition of replication of clinical strains” value in experiment [4] (all tested strains: 294.1, C08R (drug-sensitive), 615.9, C10B (drug-resistant)) is on record as ~3 logs. For the same molecule, in experiment [5], the IC50 came to 0.942 µg/mL (≈ 0.388 µM).
